From patent publication US10870641B2, “Pyridazinones as PARP7 inhibitors” (Ribon Therapeutics Inc., priority 2018, dated 2020)

How the values were obtained:
PARP7 = PARP7 (Homo sapiens (Human), UniProt Q7Z3E1); test: PARP7 inhibition potency (Table A-1); type: binding; conditions: comparison of separated isomers; see Table A-1
TIPARP (PARP7) = TIPARP (PARP7) (Homo sapiens (Human), UniProt Q7Z3E1); test: Enzymatic assay for inhibition of PARP7: displacement of biotinylated Probe A (TR-FRET); type: binding; conditions: TR-FRET displacement of Probe A from TIPARP
Description: 20 nL of a dose response curve of each test compound was spotted in black 384-well polystyrene proxiplates (Perkin Elmer) using a Mosquito (TTP Labtech). […] Reactions were incubated at 25° C. for an additional 30 min, then read on an Envision plate reader equipped with a LANCE/DELFIA top mirror (Perkin Elmer) using excitation of 320 nm and emission of 615 nm and […] with a 90 μs delay. The ratio of the 665/615 nm emission were calculated for each well to determine the amount of complex of TIPARP and Probe A in each well. […] The Hill Coefficient is normally allowed to float but may also be fixed at 1 in a 3-parameter fit. Y is the % inhibition and X is the compound concentration.

[1] = test system: NCI-H1373 lung cancer cells; test: Inhibition of cancer cell growth in NCI-H1373 cells (FIG. 2); type: cell-based, human
4T1-luc2-1A4 cells = test: Inhibition of tumor growth, 4T1 murine syngeneic model, subcutaneous dosing; type: in vivo; conditions: 4T1 orthotopic syngeneic, BALB/c mice; Compound 98 500 mg/kg S.C. QD, Compound 93A 100 mg/kg S.C. BID, 21 days
Description: (§1) Example G: Inhibition of Tumor Growth by Treatment with PARP7 Inhibitors
For the 4T1 study female BALB/c mice were inoculated orthotopically in the mammary fat pad with 4T1-luc2-1A4 cells for tumor development. Eight days after tumor inoculation, 45 mice with tumor size ranging from 63-88 mm^3 (average tumor size 67 mm^3) were selected and assigned into 3 groups using stratified randomization with 15 mice in each group based upon their tumor volumes. The treatments were started from the next day post randomization (defined randomization day as D0) and were treated with vehicle (0.5% methylcellulose+0.2% Tween 80), Compound 98 (500 mg/kg S.C. QD*21 days), Compound 93A (100 mg/kg S.C. BID*21 days) respectively. The tumor sizes were measured three times per week during the treatment. The entire study was terminated on D20.
(§2) Mean tumor volume and SEM for both studies are plotted. Statistical significance, calculated using two-tailed unpaired t-tests in which each treatment group was compared to vehicle control, is indicated by an asterisk. Statistics were performed on groups with less than 20% animal loss (D21 for CT26, D17 for 4T1).

CT26 cells = test: Inhibition of tumor growth, CT26 murine syngeneic model, subcutaneous dosing; type: in vivo; conditions: BALB/c mice, Compound 98 500 mg/kg S.C. QD, Compound 93A 100 mg/kg S.C. BID, 21 days
Description: as §1
For the CT26 study BALB/c mice were inoculated subcutaneously at the right flank with CT26 cells for tumor development. Four days after tumor inoculation, 36 mice with tumor size ranging from 40-55 mm^3 (average tumor size 47 mm^3) were selected and assigned into 3 groups using stratified randomization with 12 mice in each group based upon their tumor volumes. The treatments were started from the next day post randomization (defined randomization day as day 0) and were treated with vehicle (0.5% methylcellulose+0.2% Tween 80), Compound 98 (500 mg/kg S.C. QD*21 days), Compound 93A (100 mg/kg S.C. BID*21 days) respectively. The tumor sizes were measured three times per week during the treatment. The entire study was terminated on day 21.
as §2

[2] = test system: CT26 mouse colon cancer cells; test: Induction of interferon-beta levels in CT26 cells in the presence of STING agonist DMXAA (FIG. 3); type: cell-based
[3] = test system: RAW264.7 mouse macrophages; test: Induction of interferon-beta levels in RAW264.7 macrophages in the presence of STING agonist DMXAA (FIG. 3); type: cell-based

Sequence of TIPARP (PARP7) (Q7Z3E1 whole entry): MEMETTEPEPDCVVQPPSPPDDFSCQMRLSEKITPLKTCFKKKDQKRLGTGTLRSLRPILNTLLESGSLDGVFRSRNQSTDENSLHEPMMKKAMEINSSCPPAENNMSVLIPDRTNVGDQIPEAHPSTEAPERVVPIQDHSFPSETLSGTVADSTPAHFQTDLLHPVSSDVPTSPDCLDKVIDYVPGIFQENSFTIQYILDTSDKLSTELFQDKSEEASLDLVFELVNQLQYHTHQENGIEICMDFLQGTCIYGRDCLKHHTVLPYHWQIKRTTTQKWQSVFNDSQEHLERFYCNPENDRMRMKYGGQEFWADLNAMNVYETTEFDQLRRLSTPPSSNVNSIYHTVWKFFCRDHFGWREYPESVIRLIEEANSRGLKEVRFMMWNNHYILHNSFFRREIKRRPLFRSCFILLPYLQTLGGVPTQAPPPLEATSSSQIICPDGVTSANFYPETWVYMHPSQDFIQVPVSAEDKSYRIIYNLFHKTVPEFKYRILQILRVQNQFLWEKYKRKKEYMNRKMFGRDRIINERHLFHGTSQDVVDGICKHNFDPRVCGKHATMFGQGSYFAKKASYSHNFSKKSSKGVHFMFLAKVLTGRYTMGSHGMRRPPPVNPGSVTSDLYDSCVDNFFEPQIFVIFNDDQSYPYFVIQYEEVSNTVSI
Sequence of PARP7 (Q7Z3E1 whole entry): as above

Compound | IC50 (TIPARP (PARP7)) [nM] | further results
N#Cc1ccc(N2CCN(C(=O)C[C@H]3CC[C@@H]([C@@H]4CCCN4c4cn[nH]c(=O)c4C(F)(F)F)O3)CC2)nc1 [Example 141B, 6-(4-[2-[(2R,5S)-5-[(2S)-1-[6-oxo-5-(trifluoromethyl)-1,6-dihydropyridazin-4-yl]pyrrolidin-2-yl]oxolan-2-yl]acetyl]piperazin-1-yl)pyridine-3-carbonitrile] |  | relative potency of the enantiomers (PARP7): more potent enantiomer
O=C(CCOCCNc1cn[nH]c(=O)c1C(F)(F)F)N1CCN(c2ccc(Cl)cn2)CC1 [Example 506, 5-[(2-[3-[4-(5-Chloropyridin-2-yl)piperazin-1-yl]-3-oxopropoxy]ethyl)amino]-4-(trifluoromethyl)-2,3-dihydropyridazin-3-one] | < 100 | 
N#Cc1ccc(N2CCN(C(=O)c3cccc(OCCOc4cccc5c4CN(c4cn[nH]c(=O)c4C(F)(F)F)C5)c3)CC2)nc1 [Example 39, 6-[4-([3-[2-([2-[6-Oxo-5-(trifluoromethyl)-1,6-dihydropyridazin-4-yl]-2,3-dihydro-1H-isoindol-4-yl]oxy)ethoxy]phenyl]carbonyl)piperazin-1-yl]pyridine-3-carbonitrile] |  | growth of NCI-H1373 lung cancer cells [1]: dose-dependent decrease in growth
N#Cc1ccc(N2CCN(C(=O)c3cncc(OC[C@H]4c5ccccc5CN4c4cn[nH]c(=O)c4C(F)(F)F)n3)CC2)nc1 [Example 72B, 6-[4-[(6-[[(1R)-2-[6-oxo-5-(trifluoromethyl)-1,6-dihydropyridazin-4-yl]-2,3-dihydro-1H-isoindol-1-yl]methoxy]pyrazin-2-yl)carbonyl]piperazin-1-yl]pyridine-3-carbonitrile] | < 100 | 
COC[C@@H](COc1cn[nH]c(=O)c1C(F)(F)F)OCCC(=O)N1CCN(c2ncc(Cl)cn2)CC1 [Example 560A, 5-[(2S)-2-[3-[4-(5-chloropyrimidin-2-yl)piperazin-1-yl]-3-oxopropoxy]-3-methoxypropoxy]-4-(trifluoromethyl)-2,3-dihydropyridazin-3-one] | < 100 | 
N#Cc1ccc(N2CCN(C(=O)c3ccnc(OC[C@@H]4c5ccccc5CN4c4cn[nH]c(=O)c4C(F)(F)F)n3)CC2)nc1 [Example 38A, 6-[4-[(2-[[(1S)-2-[6-Oxo-5-(trifluoromethyl)-1,6-dihydropyridazin-4-yl]-2,3-dihydro-1H-isoindol-1-yl]methoxy]pyrimidin-4-yl)carbonyl]piperazin-1-yl]pyridine-3-carbonitrile] | < 100 | 
N#Cc1ccc(N2CCC3C2CCN3C(=O)CCOC[C@@H]2CCCN2c2cn[nH]c(=O)c2C(F)(F)F)nc1 (stereo partly drawn) [Example 110, 6-[4-(3-[[(2S)-1-[6-oxo-5-(trifluoromethyl)-1,6-dihydropyridazin-4-yl]pyrrolidin-2-yl]methoxy]propanoyl)-octahydropyrrolo[3,2-b]pyrrol-1-yl]pyridine-3-carbonitrile] | < 100 | 
N#Cc1ccc(N2CCN(C(=O)CCOC[C@@H]3c4ccccc4CN3c3cn[nH]c(=O)c3C(F)(F)F)CC2)nc1 [Example 93A, 6-[4-(3-[[(1S)-2-[6-oxo-5-(trifluoromethyl)-1,6-dihydropyridazin-4-yl]-2,3-dihydro-1H-isoindol-1-yl]methoxy]propanoyl)piperazin-1-yl]pyridine-3-carbonitrile] |  | tumor growth (4T1-luc2-1A4 cells): significantly reduce tumor growth; growth of NCI-H1373 lung cancer cells [1]: dose-dependent decrease in growth; tumor growth (CT26 cells): significantly reduce tumor growth
N#Cc1ccc(N2CCN(C(=O)c3ccnc(OC[C@H]4c5ccccc5CN4c4cn[nH]c(=O)c4C(F)(F)F)c3)CC2)nc1 [Example 36A, 6-[4-[(2-[[(1R)-2-[6-oxo-5-(trifluoromethyl)-1,6-dihydropyridazin-4-yl]-2,3-dihydro-1H-isoindol-1-yl]methoxy]pyridin-4-yl)carbonyl]piperazin-1-yl]pyridine-3-carbonitrile] | ≥ 1000 | 
COC[C@H](COc1cn[nH]c(=O)c1C(F)(F)F)OCCC(=O)N1CCN(c2ncc(Cl)cn2)CC1 [Example 560B, 5-[(2R)-2-[3-[4-(5-chloropyrimidin-2-yl)piperazin-1-yl]-3-oxopropoxy]-3-methoxypropoxy]-4-(trifluoromethyl)-2,3-dihydropyridazin-3-one] | 100 to 1000 | 
CC(C)(COCCC(=O)N1CCN(c2ccc(C#N)cn2)CC1)Nc1cn[nH]c(=O)c1C(F)(F)F [Example 519, 6-[4-[3-(2-Methyl-2-[[6-oxo-5-(trifluoromethyl)-1,6-dihydropyridazin-4-yl]amino]propoxy)propanoyl]piperazin-1-yl]pyridine-3-carbonitrile] | < 100 | 
N#Cc1ccc(N2CCN(C(=O)CCO[C@H]3Cc4ccccc4[C@@H]3Nc3cn[nH]c(=O)c3C(F)(F)F)CC2)nc1 [Example 537A] | ≥ 1000 | 
O=C(COC[C@@H]1CCCN1c1cn[nH]c(=O)c1C(F)(F)F)N[C@H]1CC[C@H](Nc2ccccn2)CC1 [Example 80A, 2-[[(2S)-1-[6-oxo-5-(trifluoromethyl)-1,6-dihydropyridazin-4-yl]pyrrolidin-2-yl]methoxy]-N-[(1r,4r)-4-[(pyridin-2-yl)amino]cyclohexyl]acetamide] | 100 to 1000 | 
N#Cc1ccc(N2CCN(C(=O)CNCC[C@H]3c4ccccc4CN3c3cn[nH]c(=O)c3C(F)(F)F)CC2)nc1 [Example 144A, 6-[4-[2-([2-[(1S)-2-[6-oxo-5-(trifluoromethyl)-1,6-dihydropyridazin-4-yl]-2,3-dihydro-1H-isoindol-1-yl]ethyl]amino)acetyl]piperazin-1-yl]pyridine-3-carbonitrile] | < 100 | 
O=C(CCOCCOc1cn[nH]c(=O)c1Cl)N1CCN(c2ccc(Cl)cn2)CC1 [Example 523, 4-Chloro-5-(2-[3-[4-(5-chloropyridin-2-yl)piperazin-1-yl]-3-oxopropoxy]ethoxy)-2,3-dihydropyridazin-3-one] | < 100 | 
N#Cc1ccc(N2CCN(C(=O)CCOC[C@@H]3CCCN3c3cn[nH]c(=O)c3C(F)(F)F)CC2)nc1 [Example 98, 6-[4-(3-[[(2S)-1-[6-Oxo-5-(trifluoromethyl)-1,6-dihydropyridazin-4-yl]pyrrolidin-2-yl]methoxy]propanoyl)piperazin-1-yl]pyridine-3-carbonitrile] |  | tumor growth (4T1-luc2-1A4 cells): significantly reduce tumor growth; growth of NCI-H1373 lung cancer cells [1]: dose-dependent decrease in growth; interferon-beta (IFN-β) levels [2]: induction of interferon-beta (IFN-β) levels; interferon-beta (IFN-β) levels [3]: induction of interferon-beta (IFN-β) levels; tumor growth (CT26 cells): significantly reduce tumor growth
N#Cc1ccc(N2CCN(C(=O)c3ccc(OC[C@H]4c5ccccc5CN4c4cn[nH]c(=O)c4C(F)(F)F)cc3)CC2)nc1 [Example 35B, 6-[4-[(4-[[(1R)-2-[6-oxo-5-(trifluoromethyl)-1,6-dihydropyridazin-4-yl]-2,3-dihydro-1H-isoindol-1-yl]methoxy]phenyl)carbonyl]piperazin-1-yl]pyridine-3-carbonitrile] | 100 to 1000 | 
